Like-named read-outs stand apart in the source and are kept apart here.
Assays:
Assay type in all cases: in vivo
Spodoptera litura = experiment: Pesticidal test against Spodoptera litura (cabbage leaf dip); conditions: foliar, 144 h, 2-stage larvae, examined after 6 days, 25° C., read-out: pesticidal rate; for pest or weed control at 1 ppm: concentration 1 ppm; for pest or weed control at 10 ppm: concentration 10 ppm
Outline: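 Cabbage leaf pieces dipped 30 seconds in compound solution at a predetermined concentration and air-dried, then offered to second-stage larvae, five per group in two replicates. Held at 25° C. Living and dead larvae counted after 6 days.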

Laodelphax striatellus = experiment: Pesticidal test against Laodelphax striatellus (rice seedling spray); conditions: 144 h, read-out: pesticidal rate
Outline: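 Rice seedlings sprayed with 2.5 ml acetone solution of compound at a predetermined concentration, air-dried, then infested with third-stage Laodelphax striatellus larvae in capped water-containing tubes at 25 °C. Living and dead insects counted after 6 days; ten larvae per group, two replicates.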

Plutella xylostella = experiment: Pesticidal test against Plutella xylostella (cabbage leaf dip); conditions: foliar, 144 h, 2-stage larvae, examined after 6 days, 25° C., read-out: pesticidal rate; for pest or weed control at 1 ppm: concentration 1 ppm; for pest or weed control at 10 ppm: concentration 10 ppm
Outline: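 Cabbage leaf pieces dipped 30 s in test solution at a predetermined concentration, air-dried, then offered to 2nd-instar larvae, five per group in duplicate. Held at 25° C; living and dead larvae counted after 6 days.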

Musca domestica = experiment: Pesticidal test against Musca domestica (petri dish dry film); conditions: 24 h, concentration 100 ppm, female adults, examined after 1 day, 25° C., read-out: pesticidal rate
Protocol: Pesticidal Test against Musca domestica
1 ml of an acetone solution in which a test compound had been prepared at a predetermined concentration was added dropwise to a petri dish having a diameter of 9 cm, and air-dried, and then the female adults of Musca domestica were released and the petri dish was capped. They were left to stand in a thermostatic chamber at 25° C., and the numbers of the living pests and the dead pests were examined after 1 day. The test was carried out with five larvae per group in two replicates.

[1] = concentration 100 ppm, 3-stage larvae, examined after 6 days, 25° C.

CN(C(=O)c1cccc(F)c1)c1cccc(C(=O)N(C)c2c(I)cc(C(F)(C(F)(F)F)C(F)(F)F)cc2C(F)(F)F)c1F [9-2322]
≥ 70%: pest or weed control at 1 ppm (Spodoptera litura) | pest or weed control at 100 ppm (Laodelphax striatellus; [1]) | pest or weed control at 1 ppm (Plutella xylostella) | pest or weed control at 100 ppm (Musca domestica)

O=C(Nc1c(I)cc(C(F)(C(F)(F)F)C(F)(F)F)cc1C(F)(F)F)c1cccc(NC(=O)c2ccc(F)cc2Br)c1 [6-453]
≥ 70%: pest or weed control at 1 ppm (Spodoptera litura) | pest or weed control at 1 ppm (Plutella xylostella) | pest or weed control at 100 ppm (Musca domestica)

O=C(Nc1cccc(C(=O)Nc2c(I)cc(C(F)(C(F)(F)F)C(F)(F)C(F)(F)F)cc2I)c1F)c1cccnc1Cl (stereo not drawn) [6-1374]
≥ 70%: pest or weed control at 1 ppm (Spodoptera litura) | pest or weed control at 100 ppm (Laodelphax striatellus; [1]) | pest or weed control at 1 ppm (Plutella xylostella) | pest or weed control at 100 ppm (Musca domestica)

CN(C(=O)OCC(Cl)(Cl)Cl)c1cccc(C(=O)Nc2c(I)cc(C(F)(C(F)(F)F)C(F)(F)C(F)(F)F)cc2C(F)(F)F)c1F (stereo not drawn) [12-864, 2,2,2-trichloroethyl 2-fluoro-3-(2-iodo-4-(perfluorobutan-2-yl)-6-(trifluoromethyl)phenylcarbamoyl)phenyl(methyl)carbamate]
≥ 70%: pest or weed control at 1 ppm (Spodoptera litura) | pest or weed control at 100 ppm (Laodelphax striatellus) | pest or weed control at 1 ppm (Plutella xylostella) | pest or weed control at 100 ppm (Musca domestica)

O=C(Nc1c(I)cc(C(F)(C(F)(F)F)C(F)(F)F)cc1C(F)(F)F)c1cccc(NC(=O)c2cc(F)c(F)cc2Cl)c1 [6-450]
≥ 70%: pest or weed control at 1 ppm (Spodoptera litura) | pest or weed control at 1 ppm (Plutella xylostella) | pest or weed control at 100 ppm (Musca domestica)

O=C(Nc1c(Br)cc(C(F)(C(F)(F)F)C(F)(F)F)cc1C(F)(F)F)c1cccc(NC(=O)c2ccc(F)cc2Cl)c1 [6-293]
≥ 70%: pest or weed control at 1 ppm (Spodoptera litura) | pest or weed control at 1 ppm (Plutella xylostella) | pest or weed control at 100 ppm (Musca domestica)

CN(C(=O)c1ccccc1)c1nc(C(=O)Nc2c(Br)cc(C(F)(C(F)(F)F)C(F)(F)F)cc2C(F)(F)F)cs1 [27-627]
≥ 70%: pest or weed control at 1 ppm (Spodoptera litura) | pest or weed control at 10 ppm (Plutella xylostella) | pest or weed control at 100 ppm (Musca domestica)

O=C(Nc1c(I)cc(C(F)(C(F)(F)F)C(F)(F)F)cc1C(F)(F)F)c1cccc(NC(=O)c2ccc(Cl)cc2Br)c1 [6-452]
≥ 70%: pest or weed control at 1 ppm (Spodoptera litura) | pest or weed control at 10 ppm (Plutella xylostella) | pest or weed control at 100 ppm (Musca domestica)

O=C(Nc1cccc(C(=O)Nc2c(I)cc(C(F)(C(F)(F)F)C(F)(F)F)cc2C(F)(F)F)c1F)OCC(Cl)(Cl)Cl [11-835]
≥ 70%: pest or weed control at 1 ppm (Spodoptera litura) | pest or weed control at 1 ppm (Plutella xylostella) | pest or weed control at 100 ppm (Musca domestica)

CN(C(=O)c1ccc(F)cc1Cl)c1cccc(C(=O)Nc2c(I)cc(C(F)(C(F)(F)F)C(F)(F)F)cc2C(F)(F)F)c1 [7-449]
≥ 70%: pest or weed control at 1 ppm (Spodoptera litura) | pest or weed control at 1 ppm (Plutella xylostella) | pest or weed control at 100 ppm (Musca domestica)

CN(C(=O)OCC(Cl)(Cl)Cl)c1cccc(C(=O)Nc2c(Br)cc(C(F)(C(F)(F)F)C(F)(F)F)cc2C(F)(F)F)c1F [12-777]
≥ 70%: pest or weed control at 1 ppm (Spodoptera litura) | pest or weed control at 1 ppm (Plutella xylostella) | pest or weed control at 100 ppm (Musca domestica)

O=C(Nc1c(Br)cc(C(F)(C(F)(F)F)C(F)(F)F)cc1C(F)(F)F)c1cccc(NC(=O)c2ccccc2Cl)c1 [6-272]
≥ 70%: pest or weed control at 1 ppm (Spodoptera litura) | pest or weed control at 1 ppm (Plutella xylostella) | pest or weed control at 100 ppm (Musca domestica)

CN(C(=O)c1ccccc1Cl)c1cccc(C(=O)Nc2c(I)cc(C(F)(C(F)(F)F)C(F)(F)F)cc2C(F)(F)F)c1 [7-428]
≥ 70%: pest or weed control at 1 ppm (Spodoptera litura) | pest or weed control at 1 ppm (Plutella xylostella) | pest or weed control at 100 ppm (Musca domestica)

CN(C(=O)c1ccccc1)c1cccc(C(=O)Nc2c(Br)cc(C(F)(C(F)(F)F)C(F)(F)F)cc2C(F)(F)F)n1 [17-1103, N-(2-bromo-4-(perfluoropropan-2-yl)-6-(trifluoromethyl)phenyl)-6-(N-methylbenzamide)picolinamide]
≥ 70%: pest or weed control at 10 ppm (Spodoptera litura) | pest or weed control at 10 ppm (Plutella xylostella) | pest or weed control at 100 ppm (Musca domestica)

O=C(Nc1cccc(C(=O)Nc2c(Br)cc(C(F)(C(F)(F)F)C(F)(F)F)cc2C(F)(F)F)c1F)OCC(Cl)(Cl)Cl [11-777]
≥ 70%: pest or weed control at 1 ppm (Spodoptera litura) | pest or weed control at 1 ppm (Plutella xylostella) | pest or weed control at 100 ppm (Musca domestica)

CN(C(=O)c1ccccc1F)c1cccc(C(=O)Nc2c(Br)cc(C(F)(C(F)(F)F)C(F)(F)C(F)(F)F)cc2Br)c1 (stereo not drawn) [7-39]
≥ 70%: pest or weed control at 1 ppm (Spodoptera litura) | pest or weed control at 1 ppm (Plutella xylostella) | pest or weed control at 100 ppm (Musca domestica)

CN(C(=O)c1ccc(C#N)cc1)c1cccc(C(=O)Nc2c(C(F)(F)F)cc(C(F)(C(F)(F)F)C(F)(F)F)cc2C(F)(F)F)c1 [7-825]
≥ 70%: pest or weed control at 1 ppm (Spodoptera litura) | pest or weed control at 100 ppm (Laodelphax striatellus; [1]) | pest or weed control at 10 ppm (Plutella xylostella)

CN(C(=O)c1ccc(C#N)cc1)c1cccc(C(=O)Nc2c(Br)cc(C(F)(C(F)(F)F)C(F)(F)C(F)(F)F)cc2C(F)(F)F)c1F (stereo not drawn) [7-1673]
≥ 70%: pest or weed control at 1 ppm (Spodoptera litura) | pest or weed control at 100 ppm (Laodelphax striatellus; [1]) | pest or weed control at 1 ppm (Plutella xylostella)

N#Cc1ccc(C(=O)Nc2c(Br)cc(C(F)(C(F)(F)F)C(F)(F)F)cc2C(F)(F)F)c(F)c1NC(=O)c1ccc(Cl)nc1 [1-1968, N-(3-(2-bromo-4-(perfluoropropan-2-yl)-6-(trifluoromethyl)phenylcarbamoyl)-6-cyano-2-fluorophenyl)-6-chloronicotinamide]
≥ 70%: pest or weed control at 10 ppm (Spodoptera litura) | pest or weed control at 1 ppm (Plutella xylostella) | pest or weed control at 100 ppm (Musca domestica)

CN(C(=O)c1cccnc1)c1cccc(C(=O)Nc2c(Br)cc(C(F)(C(F)(F)F)C(F)(F)F)cc2C(F)(F)F)c1F [7-1608]
≥ 70%: pest or weed control at 1 ppm (Spodoptera litura) | pest or weed control at 100 ppm (Laodelphax striatellus; [1]) | pest or weed control at 1 ppm (Plutella xylostella)

O=C(Nc1cccc(C(=O)Nc2c(I)cc(C(F)(C(F)(F)F)C(F)(F)F)cc2I)c1F)c1ccc(Cl)nc1 [6-1303]
≥ 70%: pest or weed control at 1 ppm (Spodoptera litura) | pest or weed control at 100 ppm (Laodelphax striatellus; [1]) | pest or weed control at 1 ppm (Plutella xylostella)

CN(C(=O)c1cccnc1F)c1cccc(C(=O)Nc2c(Br)cc(C(F)(C(F)(F)F)C(F)(F)F)cc2C(F)(F)F)c1 [7-303]
≥ 70%: pest or weed control at 1 ppm (Spodoptera litura) | pest or weed control at 100 ppm (Laodelphax striatellus; [1]) | pest or weed control at 1 ppm (Plutella xylostella)

N#Cc1ccc(C(=O)Nc2cccc(C(=O)Nc3c(I)cc(C(F)(C(F)(F)F)C(F)(F)F)cc3C(F)(F)F)c2)cc1 [6-445]
≥ 70%: pest or weed control at 1 ppm (Spodoptera litura) | pest or weed control at 100 ppm (Laodelphax striatellus; [1]) | pest or weed control at 1 ppm (Plutella xylostella)

CN(C(=O)c1c(F)cccc1F)c1cccc(C(=O)Nc2c(Br)cc(C(F)(C(F)(F)F)C(F)(F)C(F)(F)F)cc2Br)c1 (stereo not drawn) [7-47]
≥ 70%: pest or weed control at 1 ppm (Spodoptera litura) | pest or weed control at 100 ppm (Laodelphax striatellus; [1]) | pest or weed control at 1 ppm (Plutella xylostella)

CN(C(=O)c1ccc(Cl)nc1)c1cccc(C(=O)Nc2c(Br)cc(C(F)(C(F)(F)F)C(F)(F)F)cc2Br)c1F [7-1147]
≥ 70%: pest or weed control at 1 ppm (Spodoptera litura) | pest or weed control at 100 ppm (Laodelphax striatellus; [1]) | pest or weed control at 1 ppm (Plutella xylostella)

CN(C(=O)c1ccc(C#N)cc1)c1cccc(C(=O)Nc2c(Br)cc(C(F)(C(F)(F)F)C(F)(F)C(F)(F)F)cc2Br)c1F (stereo not drawn) [7-1203]
≥ 70%: pest or weed control at 1 ppm (Spodoptera litura) | pest or weed control at 100 ppm (Laodelphax striatellus; [1]) | pest or weed control at 1 ppm (Plutella xylostella)

O=C(Nc1c(I)cc(C(F)(C(F)(F)F)C(F)(F)F)cc1I)c1cccc(NC(=O)c2c(F)cccc2F)c1F [6-1282]
≥ 70%: pest or weed control at 1 ppm (Spodoptera litura) | pest or weed control at 100 ppm (Laodelphax striatellus; [1]) | pest or weed control at 1 ppm (Plutella xylostella)

O=C(Nc1c(I)cc(C(F)(C(F)(F)F)C(F)(F)F)cc1C(F)(F)F)c1cccc(NC(=O)c2ccccc2F)c1 [6-425]
≥ 70%: pest or weed control at 1 ppm (Spodoptera litura) | pest or weed control at 100 ppm (Laodelphax striatellus; [1]) | pest or weed control at 1 ppm (Plutella xylostella)

CN(C(=O)c1ccc(C#N)cc1)c1cccc(C(=O)Nc2c(I)cc(C(F)(C(F)(F)F)C(F)(F)F)cc2C(F)(F)F)c1 [7-445]
≥ 70%: pest or weed control at 1 ppm (Spodoptera litura) | pest or weed control at 100 ppm (Laodelphax striatellus; [1]) | pest or weed control at 1 ppm (Plutella xylostella)

CN(C(=O)c1cccc(C#N)c1)c1cccc(C(=O)Nc2c(Br)cc(C(F)(C(F)(F)F)C(F)(F)C(F)(F)F)cc2C(F)(F)F)c1F (stereo not drawn) [7-1672]
≥ 70%: pest or weed control at 1 ppm (Spodoptera litura) | pest or weed control at 100 ppm (Laodelphax striatellus; [1]) | pest or weed control at 1 ppm (Plutella xylostella)

O=C(Nc1cccc(C(=O)Nc2c(I)cc(C(F)(C(F)(F)F)C(F)(F)C(F)(F)F)cc2I)c1F)c1ccc(Cl)nc1 (stereo not drawn) [6-1381]
≥ 70%: pest or weed control at 1 ppm (Spodoptera litura) | pest or weed control at 100 ppm (Laodelphax striatellus; [1]) | pest or weed control at 1 ppm (Plutella xylostella)

O=C(Nc1c(Br)cc(C(F)(C(F)(F)F)C(F)(F)F)cc1C(F)(F)F)c1cccc(NC(=O)c2c(F)cccc2F)c1 [6-290]
≥ 70%: pest or weed control at 1 ppm (Spodoptera litura) | pest or weed control at 100 ppm (Laodelphax striatellus; [1]) | pest or weed control at 1 ppm (Plutella xylostella)

CN(C(=O)c1cccc([N+](=O)[O-])c1)c1cccc(C(=O)Nc2c(Br)cc(C(F)(C(F)(F)F)C(F)(F)F)cc2C(F)(F)F)c1 [7-285]
≥ 70%: pest or weed control at 1 ppm (Spodoptera litura) | pest or weed control at 100 ppm (Laodelphax striatellus; [1]) | pest or weed control at 10 ppm (Plutella xylostella)

CN(C(=O)c1ccc([N+](=O)[O-])cc1)c1cccc(C(=O)Nc2c(Br)cc(C(F)(C(F)(F)F)C(F)(F)F)cc2C(F)(F)F)c1 [7-286]
≥ 70%: pest or weed control at 1 ppm (Spodoptera litura) | pest or weed control at 100 ppm (Laodelphax striatellus; [1]) | pest or weed control at 1 ppm (Plutella xylostella)

O=C(Nc1c(I)cc(C(F)(C(F)(F)F)C(F)(F)F)cc1C(F)(F)F)c1cccc(NC(=O)c2ccccc2Cl)c1 [6-428]
≥ 70%: pest or weed control at 1 ppm (Spodoptera litura) | pest or weed control at 1 ppm (Plutella xylostella) | pest or weed control at 100 ppm (Musca domestica)

— US8686044B2, “Amide derivative, pest control agent containing the amide derivative, and use of the amide derivative” (Mitsui Chemicals Agro, Inc., priority 2008, dated 2014)
